Experimental data taken from patent publication US20200370087A1, “METHOD FOR DETERMINING MICROBIAL SUSCEPTIBILITY TO ANTIBIOTIC AGENTS” (Ascilion AB, priority 2017, published 2020).
≈ marks a conversion by molar mass, not a printed value.

Experiments:
[1] = test system: Staphylococcus aureus ATCC 29213; settings: S.aureus, cited from earlier work
[2] = test system: Enterococcus faecalis (ATCC 29212); test: Glucose consumption susceptibility test, blood culture diluted in MHB with glucose (Example 1); assay type: cell-based; design: glucose concentration, t = 0 / glucose concentration, t = 60 / glucose concentration, t = 120 / glucose concentration, t = 180 / glucose concentration, t = 240 / dC/dT (rate of change in glucose concentration): unit not given here; settings: E. faecalis; for glucose concentration, t = 0: 0 minutes; for glucose concentration, t = 60: 60 minutes; for glucose concentration, t = 120: 120 minutes; for glucose concentration, t = 180: 180 minutes; for glucose concentration, t = 240: 240 minutes
Description: (§1) Strains of Escherichia coli (ATCC 25922), Enterococcus faecalis (ATCC 29212) and Staphylococcus aureus (ATCC 29213) were inoculated in blood culture bottles (SVA, Uppsala, Sweden) and cultivated according to the manufacturer's instructions until positive.
(§2) Medium from each blood culture bottle was diluted 1:100 with cation adjusted Mueller-Hinton broth (SVA, Uppsala, Sweden) supplemented with glucose to a concentration of 1.0 mg/mL.
(§3) Glucose concentrations were measured at 0, 60, 120, 180, and 240 minutes using a WaveSense Jazz glucometer (AgaMatrix, Inc., Salem, N.H., USA) with accompanying test strips.
(§4) Susceptibility scores corresponding to MIC values were calculated as described above. A 80% threshold was applied, i.e. the lowest concentration of antibiotic that entailed a rate of change in glucose concentration that was equal to or less than 80% of the reference was selected as the Minimal Inhibitory Concentration. The rate of change was calculated between the measurements at 60 and 180 minutes.

[3] = test system: Staphylococcus aureus (ATCC 29213); test: as above; assay type: cell-based; design: glucose concentration, t = 0 / glucose concentration, t = 60 / glucose concentration, t = 120 / glucose concentration, t = 180 / glucose concentration, t = 240 / dC/dT (rate of change in glucose concentration): unit not given here; settings: for F = the rate of change in glucose concentration in relation to the reference / dC/dT (rate of change in glucose concentration) / glucose concentration, t = 0 / glucose concentration, t = 60 / glucose concentration, t = 120 / glucose concentration, t = 180 / glucose concentration, t = 240: S. aureus; for glucose concentration, t = 0: 0 minutes; for glucose concentration, t = 60: 60 minutes; for glucose concentration, t = 120: 120 minutes; for glucose concentration, t = 180: 180 minutes; for glucose concentration, t = 240: 240 minutes
Description: as §1, §2, §3, §4

- MIC ([2]; Enterococcus faecalis, ATCC29212, 80% threshold, disregarded as rate of decrease was higher at 32 μg/mL, read-out: MIC value initially obtained (disregarded)): 4 µg/mL (≈ 9.36 µM)
- MIC ([3]; Staphylococcus aureus, ATCC29213, S.aureus, 80% threshold of reference rate of change, 60 to 180 minutes, read-out: MIC, Measured): 2 µg/mL (≈ 4.68 µM)
Compound: CO[C@@]1(NC(=O)Cc2cccs2)C(=O)N2C(C(=O)O)=C(COC(N)=O)CS[C@@H]21 [Cefoxitin, cefoxitin]
- MIC, EUCAST, range in parentheses ([1]; range obtained by EUCAST from ISO 20776-1: 2006): (1-4) ug/mL
- MIC, EUCAST ([1]; reference value, Mueller-Hinton agar, incubation 18±2 h): 2 µg/mL (≈ 4.68 µM)
- F = the rate of change in glucose concentration in relation to the reference ([2]; antibiotic 0.25 μg/mL): 93%
- dC/dT (rate of change in glucose concentration) ([2]; antibiotic 0.25 μg/mL): 34
- glucose concentration, t = 0 ([2]; antibiotic 0.25 μg/mL): 151
- glucose concentration, t = 60 ([2]; antibiotic 0.25 μg/mL): 155
- glucose concentration, t = 120 ([2]; antibiotic 0.25 μg/mL): 138
- glucose concentration, t = 180 ([2]; antibiotic 0.25 μg/mL): 88
- glucose concentration, t = 240 ([2]; antibiotic 0.25 μg/mL): 34
- F = the rate of change in glucose concentration in relation to the reference ([2]; antibiotic 0.5 μg/mL): 88%
- dC/dT (rate of change in glucose concentration) ([2]; antibiotic 0.5 μg/mL): 32
- glucose concentration, t = 0 ([2]; antibiotic 0.5 μg/mL): 145
- glucose concentration, t = 60 ([2]; antibiotic 0.5 μg/mL): 150
- glucose concentration, t = 120 ([2]; antibiotic 0.5 μg/mL): 144
- glucose concentration, t = 180 ([2]; antibiotic 0.5 μg/mL): 87
- glucose concentration, t = 240 ([2]; antibiotic 0.5 μg/mL): 32
- F = the rate of change in glucose concentration in relation to the reference ([2]; antibiotic 1 μg/mL): 85%
- dC/dT (rate of change in glucose concentration) ([2]; antibiotic 1 μg/mL): 31
- glucose concentration, t = 0 ([2]; antibiotic 1 μg/mL): 148
- glucose concentration, t = 60 ([2]; antibiotic 1 μg/mL): 159
- glucose concentration, t = 120 ([2]; antibiotic 1 μg/mL): 142
- glucose concentration, t = 180 ([2]; antibiotic 1 μg/mL): 98
- glucose concentration, t = 240 ([2]; antibiotic 1 μg/mL): 31
- F = the rate of change in glucose concentration in relation to the reference ([2]; antibiotic 2 μg/mL): 99%
- dC/dT (rate of change in glucose concentration) ([2]; antibiotic 2 μg/mL): 36
- glucose concentration, t = 0 ([2]; antibiotic 2 μg/mL): 149
- glucose concentration, t = 60 ([2]; antibiotic 2 μg/mL): 169
- glucose concentration, t = 120 ([2]; antibiotic 2 μg/mL): 145
- glucose concentration, t = 180 ([2]; antibiotic 2 μg/mL): 98
- glucose concentration, t = 240 ([2]; antibiotic 2 μg/mL): 36
- F = the rate of change in glucose concentration in relation to the reference ([2]; antibiotic 4 μg/mL): 74%
- dC/dT (rate of change in glucose concentration) ([2]; antibiotic 4 μg/mL): 27
- glucose concentration, t = 0 ([2]; antibiotic 4 μg/mL): 150
- glucose concentration, t = 60 ([2]; antibiotic 4 μg/mL): 159
- glucose concentration, t = 120 ([2]; antibiotic 4 μg/mL): 146
- glucose concentration, t = 180 ([2]; antibiotic 4 μg/mL): 106
- glucose concentration, t = 240 ([2]; antibiotic 4 μg/mL): 27
- F = the rate of change in glucose concentration in relation to the reference ([2]; antibiotic 8 μg/mL): 63%
- dC/dT (rate of change in glucose concentration) ([2]; antibiotic 8 μg/mL): 23
- glucose concentration, t = 0 ([2]; antibiotic 8 μg/mL): 144
- glucose concentration, t = 60 ([2]; antibiotic 8 μg/mL): 149
- glucose concentration, t = 120 ([2]; antibiotic 8 μg/mL): 147
- glucose concentration, t = 180 ([2]; antibiotic 8 μg/mL): 104
- glucose concentration, t = 240 ([2]; antibiotic 8 μg/mL): 23
- F = the rate of change in glucose concentration in relation to the reference ([2]; antibiotic 16 μg/mL): 68%
- dC/dT (rate of change in glucose concentration) ([2]; antibiotic 16 μg/mL): 25
- glucose concentration, t = 0 ([2]; antibiotic 16 μg/mL): 148
- glucose concentration, t = 60 ([2]; antibiotic 16 μg/mL): 154
- glucose concentration, t = 120 ([2]; antibiotic 16 μg/mL): 148
- glucose concentration, t = 180 ([2]; antibiotic 16 μg/mL): 105
- glucose concentration, t = 240 ([2]; antibiotic 16 μg/mL): 25
- F = the rate of change in glucose concentration in relation to the reference ([2]; antibiotic 32 μg/mL): 74%
- dC/dT (rate of change in glucose concentration) ([2]; antibiotic 32 μg/mL): 27
- glucose concentration, t = 0 ([2]; antibiotic 32 μg/mL): 148
- glucose concentration, t = 60 ([2]; antibiotic 32 μg/mL): 155
- glucose concentration, t = 120 ([2]; antibiotic 32 μg/mL): 140
- glucose concentration, t = 180 ([2]; antibiotic 32 μg/mL): 102
- glucose concentration, t = 240 ([2]; antibiotic 32 μg/mL): 27
- F = the rate of change in glucose concentration in relation to the reference ([3]; antibiotic 0.25 μg/mL): 91%
- dC/dT (rate of change in glucose concentration) ([3]; antibiotic 0.25 μg/mL): 31
- glucose concentration, t = 0 ([3]; antibiotic 0.25 μg/mL): 143
- glucose concentration, t = 60 ([3]; antibiotic 0.25 μg/mL): 152
- glucose concentration, t = 120 ([3]; antibiotic 0.25 μg/mL): 132
- glucose concentration, t = 180 ([3]; antibiotic 0.25 μg/mL): 91
- glucose concentration, t = 240 ([3]; antibiotic 0.25 μg/mL): 33
- F = the rate of change in glucose concentration in relation to the reference ([3]; antibiotic 0.5 μg/mL): 96%
- dC/dT (rate of change in glucose concentration) ([3]; antibiotic 0.5 μg/mL): 32
- glucose concentration, t = 0 ([3]; antibiotic 0.5 μg/mL): 144
- glucose concentration, t = 60 ([3]; antibiotic 0.5 μg/mL): 155
- glucose concentration, t = 120 ([3]; antibiotic 0.5 μg/mL): 130
- glucose concentration, t = 180 ([3]; antibiotic 0.5 μg/mL): 91
- glucose concentration, t = 240 ([3]; antibiotic 0.5 μg/mL): 32
- F = the rate of change in glucose concentration in relation to the reference ([3]; antibiotic 1 μg/mL): 82%
- dC/dT (rate of change in glucose concentration) ([3]; antibiotic 1 μg/mL): 28
- glucose concentration, t = 0 ([3]; antibiotic 1 μg/mL): 147
- glucose concentration, t = 60 ([3]; antibiotic 1 μg/mL): 155
- glucose concentration, t = 120 ([3]; antibiotic 1 μg/mL): 133
- glucose concentration, t = 180 ([3]; antibiotic 1 μg/mL): 100
- glucose concentration, t = 240 ([3]; antibiotic 1 μg/mL): 40
- F = the rate of change in glucose concentration in relation to the reference ([3]; antibiotic 2 μg/mL): 72%
- dC/dT (rate of change in glucose concentration) ([3]; antibiotic 2 μg/mL): 24
- glucose concentration, t = 0 ([3]; antibiotic 2 μg/mL): 141
- glucose concentration, t = 60 ([3]; antibiotic 2 μg/mL): 146
- glucose concentration, t = 120 ([3]; antibiotic 2 μg/mL): 143
- glucose concentration, t = 180 ([3]; antibiotic 2 μg/mL): 98
- glucose concentration, t = 240 ([3]; antibiotic 2 μg/mL): 61
- F = the rate of change in glucose concentration in relation to the reference ([3]; antibiotic 4 μg/mL): 16%
- dC/dT (rate of change in glucose concentration) ([3]; antibiotic 4 μg/mL): 6
- glucose concentration, t = 0 ([3]; antibiotic 4 μg/mL): 142
- glucose concentration, t = 60 ([3]; antibiotic 4 μg/mL): 150
- glucose concentration, t = 120 ([3]; antibiotic 4 μg/mL): 143
- glucose concentration, t = 180 ([3]; antibiotic 4 μg/mL): 139
- glucose concentration, t = 240 ([3]; antibiotic 4 μg/mL): 139
- F = the rate of change in glucose concentration in relation to the reference ([3]; antibiotic 8 μg/mL): 24%
- dC/dT (rate of change in glucose concentration) ([3]; antibiotic 8 μg/mL): 8
- glucose concentration, t = 0 ([3]; antibiotic 8 μg/mL): 136
- glucose concentration, t = 60 ([3]; antibiotic 8 μg/mL): 157
- glucose concentration, t = 120 ([3]; antibiotic 8 μg/mL): 160
- glucose concentration, t = 180 ([3]; antibiotic 8 μg/mL): 141
- glucose concentration, t = 240 ([3]; antibiotic 8 μg/mL): 149
- F = the rate of change in glucose concentration in relation to the reference ([3]; antibiotic 16 μg/mL): 22%
- dC/dT (rate of change in glucose concentration) ([3]; antibiotic 16 μg/mL): 8
- glucose concentration, t = 0 ([3]; antibiotic 16 μg/mL): 140
- glucose concentration, t = 60 ([3]; antibiotic 16 μg/mL): 157
- glucose concentration, t = 120 ([3]; antibiotic 16 μg/mL): 152
- glucose concentration, t = 180 ([3]; antibiotic 16 μg/mL): 142
- glucose concentration, t = 240 ([3]; antibiotic 16 μg/mL): 142
- F = the rate of change in glucose concentration in relation to the reference ([3]; antibiotic 32 μg/mL): 27%
- dC/dT (rate of change in glucose concentration) ([3]; antibiotic 32 μg/mL): 9
- glucose concentration, t = 0 ([3]; antibiotic 32 μg/mL): 145
- glucose concentration, t = 60 ([3]; antibiotic 32 μg/mL): 154
- glucose concentration, t = 120 ([3]; antibiotic 32 μg/mL): 145
- glucose concentration, t = 180 ([3]; antibiotic 32 μg/mL): 136
- glucose concentration, t = 240 ([3]; antibiotic 32 μg/mL): 139
